Where no end group is shown, it is not given here.
Target: T1, HLA-A*11:01 protein (Homo sapiens, UniProt P04439, A114D/D185E/E176A/F33Y/L180Q/S129P/T187R)
T1 construct: biotin (biotinylated)
Assay: Bio-Layer Interferometry (BLI) affinity test, Octet R8
Conditions: Octet R8, SSA sensors, peptides 100-3.125 µM in PBST (PBS+0.02%Tween20+1% DMSO), balance, binding, dissociation 60 s each

Sequence	Kd	KD	KD (listed as 13[…]21)
KCYGLSPTK	23 µM		
SQCVNFTTR		Non-binding	not detected
FSTFKCYGL	5.95 µM		
GLSPTKLNDL	319 µM		
